The nature of the data set: Hepatic content in dead rats by high-pressure liquid chromatography on a chiral column. The format is in vivo, rat. On the procedure: About 0.525 g (±0.025 g) of rat liver is weighed out accurately and placed in a 50 mL polypropylene tube. 10 mL of acetone are added and the suspension is homogenized using an Ultra-Turrax® homogenizer/disperser for a time of about 30 seconds. The homogenizer/disperser shaft is rinsed with hot water and then twice with 20 mL of acetone in a polypropylene tube. The homogenate is centrifuged for 5 minutes at a centrifugation speed of 3000 rpm (revolutions per minute). The supernatant is collected and transferred into a test tube. The sample is subjected to evaporation under a stream of nitrogen (N2) at a temperature of 40° C. so as to form a dry extract.
1 mL of acetonitrile is added to the tube containing the dry extract so as to dissolve it. […]
The solution containing difethialone is analysed by high-pressure liquid chromatography on a LUX® Cellulose-3 chiral column (Phenomenex, Le Pecq, France) (150×2 mm, particle size of 3 μm) as described in point A2) above.
The measured values, expressed as micrograms of dextrorotatory enantiomer of said hetero-stereoisomer (“DFN-Hetero-dextro”) per gram of liver, are given in table 2 below.
The hepatic content of the dextrorotatory enantiomer of said hetero-stereoisomer of difethialone in each of the rats which die between D5 and D8 is measured by high-pressure liquid chromatography analysis on a chiral column. […]

Consider `O=c1sc2ccccc2c(O)c1C1CC(c2ccc(-c3ccc(Br)cc3)cc2)Cc2ccccc21` (centres unmarked) [Total difethialone, 3-(4′-bromobiphenyl-4-yl)-1-(4-hydroxythiocoumarin-3-yl)-1,2,3,4-tetrahydronaphthalene], for which the “Hepatic content, mean” value (liver of rats which die between D5 and D8 after 10.6 ppm bait) was 15.113 µg/g; the “Hepatic content, mean” value (liver of rats which die between D9 and D13 after 3.7 ppm bait) amounted to 5.372 µg/g.

(Values after patent US20190150438A1, “CONFIGURATIONAL STEREOISOMER OF DIFETHIALONE, COMPOSITION AND RODENTICIDE BAIT COMPRISING SAME, AND METHOD FOR CONTROLLING TARGET RODENT PESTS” (priority 2015, published 2019).)
